Data published in patent US7598234B2, “Steroid derived antibiotics” (Brigham Young University, priority 1998, dated 2009).
Values after ≈ are worked out from the molar mass of the structure shown.

Legend:
[1] = Protocol: Minimum inhibition concentrations (MIC) and minimum hemolytic concentrations (MHC) were measured as described in Li et al., Antimicrob. Agents. Chemother., 1999, 43, 1347.
[2] = system: Candida albicans ATCC 90028; test: MIC and MBC measurement with Candida albicans ATCC 90028; format: cell-based; conditions: Table 10
Source text: General: Microorganisms. Reference strains were purchased from the American Type Culture Collection (Rockville, Md.) or Bactrol disks from Difeo Laboratories (Detroit, Mich.). The following specific ATCC strains were used: 10798 Escherichia coli, 25922 Escherichia coli, 13883 Klebsiella pneumoniae, 27853 Pseudomonas aeruginosa, 14028 Salmonella typhimurium, 29212 Enterococcus faecalis, 25923 Staphylococcus aureus, 19615 Streptococcus pyogenes, and 90028 Candida albicans. Bacterial strains were maintained on Mueller-Hinton agar plates, and Candida albicans was maintained on Sabouraud Dextrose agar plates.
Tryptic soy broth (TSB) was made by dissolving 27.5 grams of tryptic soy broth without dextrose (DIFCO Laboratories) in 1 liter of deionized water and sterilizing at 121° C. for 15 minutes. Solid agar (TSA) plates were made by dissolving 6.4 grams of tryptic soy broth and 12 grams of agar (purified grade, Fischer Scientific) in 800 mL of deionized water and sterilizing at 121° C. for 20 minutes. Aliquots (20 mL) of the homogeneous solution were then poured in sterile plastic petri dishes (100×15 mm, Fisher Scientific). Solutions of compounds were made by dissolving the HCl salt of the respective compound into an appropriate amount of deionized and sterilized water followed by microfiltration.
(§1) Aliquots of 1 mL of the suspension were added to test tubes containing 1 mL TSB and incrementally varied concentrations of cholic acid derivatives and/or erythromycin or novobiocin. In the sensitization experiments, erythromycin or novobiocin were added 15 minutes later than the cholic acid derivatives. The samples were subjected to stationary incubation at 37° C. for 24 hours. Sample turbidity was determined by measuring absorption at 760 nm (HP 8453 UV-Visible Chemstation, Hewlett Packard). Additionally, an alliquot from each of the samples showing no measurable turbidity was subcultured on TSA plates (alliquots were diluted to provide fewer than 300 CFU). Colonies that grew on the subculture after overnight incubation were counted and the number of CFU/mL in the samples were calculated. The calculated values were compared to the number of CFU/mL in the original inoculum.

E. coli (ATCC 25922) = test: MIC and MBC measurement with E. coli (ATCC 25922); format: cell-based, Escherichia coli
Summary of the method: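 Growth inhibition read as absorbance at 760 nm after 24 h stationary culture at 37 °C in tryptic soy broth containing varied compound levels. Turbidity-free samples were plated on TSA overnight and CFU/mL compared with the starting inoculum for bactericidal endpoint; antibiotic co-additions followed compound by 15 min.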

[3] = system: Pseudomonas aeruginosa (ATCC 27853); test: Sensitization to novobiocin, Pseudomonas aeruginosa (ATCC 27853); format: cell-based; conditions: for FIC / concentration required to inhibit bacterial growth with antibiotic: Table 12, Pseudomonas aeruginosa ATCC 27853; for FIC: novobiocin (by order); for concentration required to inhibit bacterial growth with antibiotic: novobiocin (by order) at 0.5, 1.0 or 3.0 μg/mL; for MIC: concentration required to lower the MIC of novobiocin from >500 μg/mL to 1 μg/mL: Table 8, P. aureginosa (ATCC 27853)
Summary of the method: (§2)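 Sensitization measured by the cholic acid derivative concentration inhibiting growth when combined with 0.5, 1.0 or 3.0 μg/mL erythromycin or novobiocin, antibiotic added 15 min after derivative. Incubation 24 h at 37 °C without shaking in TSB; growth by absorbance at 760 nm with CFU plating of non-turbid tubes; synergy expressed as FIC.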

E. coli (ATCC 10798) = test: MIC and MBC measurement with E. coli (ATCC 10798); format: cell-based, Escherichia coli
Summary of the method: (§3)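 Broth macrodilution, TSB, 37° C./24 h stationary; MIC by absence of A760 turbidity, MBC by TSA subculture CFU/mL against starting inoculum.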

[4] = system: Klebsiella pneumonia ATCC 13883; test: Growth inhibition and FIC with rifampicin, Klebsiella pneumoniae ATCC 13883; format: cell-based; conditions: for FIC: Table 13, rifampicin (by order); for concentration required to inhibit bacterial growth with antibiotic: Table 13, rifampicin (by order) at 0.5, 1.0 or 3.0 μg/mL
Protocol: (§4) Alternatively, “fractional inhibitory concentration (FIC)” is also useful for determination of synergy between the compounds of the invention, or the compounds in combination with known antibiotics. FICs can be performed by checkerboard titrations of compounds in one dimension of a microtiter plate, and of antibiotics in the other dimension, for example. The FIC is calculated by looking at the impact of one antibiotic on the MIC of the other and vice versa. […] Preferably, an FIC of less than 0.5 is obtained for synergism. As used herein, FIC can be determined as follows:
as §1
(§5) To measure permeabilization, the FIC values for compounds 1, 2, 5, 106, 10, 112, 133, and 134 with erythromycin, novobiocin, and rifampicin were determined. Concentrations of 0.5, 1.0 or 3.0 μg/mL of these antibiotics were used, and the concentrations of the cholic acid derivatives required to inhibit bacterial growth of Gram-negative strains were determined.

[5] = system: Klebsiella pneumonia ATCC 13883; test: MIC and MBC measurement with Klebsiella pneumoniae ATCC 13883; format: cell-based; conditions: Table 10
Summary of the method: as §3

[6] = system: Pseudomonas aeruginosa (ATCC 27853); test: Sensitization to erythromycin, Pseudomonas aeruginosa (ATCC 27853); format: cell-based; conditions: for FIC / concentration required to inhibit bacterial growth with antibiotic: Table 11, Pseudomonas aeruginosa ATCC 27853; for FIC: erythromycin (by order); for concentration required to inhibit bacterial growth with antibiotic: erythromycin (by order) at 0.5, 1.0 or 3.0 μg/mL; for MIC: concentration required to lower the MIC of erythromycin from 240 μg/mL to 5 μg/mL / MBC (with erythromycin): Table 7, P. aureginosa (ATCC 27853); for MBC (with erythromycin): erythromycin sensitization
Summary of the method: as §2

[7] = system: Salmonella typhimurium ATCC 14028; test: Growth inhibition and FIC with rifampicin, Salmonella typhimurium ATCC 14028; format: cell-based; conditions: Table 13, Salmonella typhimurium ATCC 14028^b; for FIC: rifampicin (by order); for concentration required to inhibit bacterial growth with antibiotic: rifampicin (by order) at 0.5, 1.0 or 3.0 μg/mL
Protocol: as §4, §1, §5

[8] = system: Escherichia coli ATCC 25922; test: Growth inhibition and FIC with rifampicin, Escherichia coli ATCC 25922; format: cell-based; conditions: for FIC: Table 13, rifampicin (by order); for concentration required to inhibit bacterial growth with antibiotic: Table 13, rifampicin (by order) at 0.5, 1.0 or 3.0 μg/mL
Protocol: as §4, §1, §5

[9] = system: E. coli containing an inducible luciferase coding plasmid; test: Luciferin/luciferase-based permeabilization / cell lysis assay; design: species or system Escherichia coli; conditions: permeabilization of the outer membrane allowing luciferin to enter the cell
Protocol: Using a technique described by J. M. Shupp, S. E. Travis, L. B. Price, R. F. Shand, P. Keim, RAPID BACTERIAL PERMEABILIZATION REAGENT USEFUL FOR ENZYME ASSAYS, Biotechniques, 1995, vol.
In this assay, E. coli containing an inducible luciferase coding plasmid was incubated with the inducing agent […], then treated with a lysis buffer containing either PMB or one of the cholic acid derivatives, and Triton X-100. Luciferin and ATP were then added. […] The concentrations of the membrane disrupting agents (PMB and the cholic acid derivatives) were varied, and the resulting luminescence was measured.

[10] = Table 10, Escherichia coli ATCC 25922
[11] = Table 9, Escherichia coli (ATCC 10798)

| Compound | MHC [1] | MBC [2] | MIC [2] | MBC (E. coli (ATCC 25922); [10]) | MIC (E. coli (ATCC 25922); [10]) | FIC [3] | concentration required to inhibit bacterial growth with antibiotic [3] | MBC (E. coli (ATCC 10798); [11]) | MIC (E. coli (ATCC 10798); [11]) | FIC [4] | concentration required to inhibit bacterial growth with antibiotic [4] | MBC [5] | MIC [5] | FIC [6] | concentration required to inhibit bacterial growth with antibiotic [6] | FIC [7] | concentration required to inhibit bacterial growth with antibiotic [7] | FIC [8] | concentration required to inhibit bacterial growth with antibiotic [8] | MBC (E. coli (ATCC 25922); Table 4, E. coli (ATCC 25922)) | further results |
| --- | --- | --- | --- | --- | --- | --- | --- | --- | --- | --- | --- | --- | --- | --- | --- | --- | --- | --- | --- | --- | --- |
| C[C@]12CC[C@@H](OCCCN)C[C@H]1C[C@@H](OCCCN)[C@@H]1[C@@H]2C[C@H](OCCCN)[C@]2(C)[C@@H](O)CC[C@@H]12 [Compound 106] | >100 µg/mL | 92 µg/mL (≈ 186 µM) | 75 µg/mL (≈ 151 µM) | 90 µg/mL (≈ 182 µM) | 80 µg/mL (≈ 161 µM) | 0.36 | 30 µg/mL | >200 µg/mL | 140 µg/mL (≈ 282 µM) | 0.044 | 1.8 µg/mL | 100 µg/mL (≈ 202 µM) | >100 µg/mL | 0.22 | 16 µg/mL | 0.064 | 1.4 µg/mL | 0.12 | 4.2 µg/mL | – | – |
| C[C@H](CCCN(C)Cc1ccccc1)[C@H]1CC[C@H]2[C@@H]3[C@H](OCCN)C[C@@H]4C[C@H](OCCN)CC[C@]4(C)[C@H]3C[C@H](OCCN)[C@]12C [Compound 1] | 78 µg/mL | >50 µg/mL | 49 µg/mL (≈ 78.2 µM) | 22 µg/mL (≈ 35.1 µM) | 22 µg/mL (≈ 35.1 µM) | 0.16 | 3.9 µg/mL | – | – | 0.043 | 0.40 µg/mL | >36 µg/mL | 24 µg/mL (≈ 38.3 µM) | 0.29 | 6.6 µg/mL | 0.089 | 0.84 µg/mL | 0.099 | 0.74 µg/mL | 40 µg/mL (≈ 63.8 µM) | MIC (E. coli (ATCC 25922); Table 4, E. coli (ATCC 25922)): 25 µg/mL (≈ 39.9 µM); MIC: concentration required to lower the MIC of novobiocin from >500 μg/mL to 1 μg/mL [3]: 6 µg/mL; MBC (E. coli (ATCC 10798); Table 1, E. coli (ATCC 10798)): 34 µg/mL (≈ 54.2 µM); MIC (E. coli (ATCC 10798); Table 1, E. coli (ATCC 10798)): 20 µg/mL (≈ 31.9 µM); MIC: concentration required to lower the MIC of erythromycin from 240 μg/mL to 5 μg/mL [6]: 8 µg/mL; MBC (with erythromycin) [6]: 45 µg/mL |
| CCCOCCC[C@@H](C)[C@H]1CC[C@H]2[C@@H]3[C@H](OCCCN)C[C@@H]4C[C@H](OCCCN)CC[C@]4(C)[C@H]3C[C@H](OCCCN)[C@]12C [Compound 112] | 5.9 µg/mL | 45 µg/mL (≈ 74 µM) | 41 µg/mL (≈ 67.4 µM) | 7.4 µg/mL (≈ 12.2 µM) | 6.6 µg/mL (≈ 10.9 µM) | 0.17 | 0.72 µg/mL | 17 µg/mL (≈ 28 µM) | 12 µg/mL (≈ 19.7 µM) | 0.031 | 0.11 µg/mL | 27 µg/mL (≈ 44.4 µM) | 23 µg/mL (≈ 37.8 µM) | 0.59 | 1.0 µg/mL | 0.051 | 0.10 µg/mL | 0.19 | 0.81 µg/mL | – | – |
| C[C@H](CCCN(C)Cc1ccccc1)[C@H]1CC[C@H]2[C@@H]3[C@H](OCCCN)C[C@@H]4C[C@H](OCCCN)CC[C@]4(C)[C@H]3C[C@H](OCCCN)[C@]12C [Compound 2] | 58 µg/mL | 42 µg/mL (≈ 62.8 µM) | 30 µg/mL (≈ 44.8 µM) | 6.8 µg/mL (≈ 10.2 µM) | 5.1 µg/mL (≈ 7.62 µM) | 0.27 | 2.9 µg/mL | – | – | 0.035 | 0.12 µg/mL | 17 µg/mL (≈ 25.4 µM) | 14 µg/mL (≈ 20.9 µM) | 0.25 | 2.4 µg/mL | 0.079 | 0.39 µg/mL | 0.22 | 0.80 µg/mL | 20 µg/mL (≈ 29.9 µM) | half maximum luminescence [9]: 7 µg/mL; MIC (E. coli (ATCC 25922); Table 4, E. coli (ATCC 25922)): 10 µg/mL (≈ 14.9 µM); MIC: concentration required to lower the MIC of novobiocin from >500 μg/mL to 1 μg/mL [3]: 4 µg/mL; MBC (E. coli (ATCC 10798); Table 1, E. coli (ATCC 10798)): 16 µg/mL (≈ 23.9 µM); MIC (E. coli (ATCC 10798); Table 1, E. coli (ATCC 10798)): 7 µg/mL (≈ 10.5 µM); MIC: concentration required to lower the MIC of erythromycin from 240 μg/mL to 5 μg/mL [6]: 4 µg/mL; MBC (with erythromycin) [6]: 25 µg/mL |
